The text below walks through data of ChEMBL document CHEMBL2157881, “Labeled Ligand Displacement: Extending NMR-Based Screening of Protein Targets” (ACS Med Chem Lett, 2010).

Calls of active or inactive are those of the source. The rule behind the calls is not given here.

The nature of test [1]: Binding affinity bovine carbonic anhydrase by surface plasma resonance method. Details: species or system Bos taurus.
The species named for test [2] is Bos taurus. The experiment in a line: Binding affinity bovine carbonic anhydrase assessed as broadening of compound signals using [13C]labeled compound at 20 uM by NMR spectroscopy.
A short description of test [3]: Binding affinity to HSP90 ATPase domain by TR-FRET assay. On the technique in general: Time-resolved FRET reads energy transfer from a long-lived donor to a nearby acceptor.
Test [4] can be described thus: Binding affinity HSP90 ATPase domain assessed as broadening of compound signals using [13C]labeled compound at 200 uM by NMR spectroscopy.
Test [5] can be described thus: Binding affinity to HSP90 ATPase domain assessed as broadening of compound signals using [13C]labeled compound at 20 uM by NMR spectroscopy.
Test [6] in a line: Binding affinity HSP90 ATPase domain at 100 uM by STD competition spectroscopy.
Test [7] in a line: Binding affinity bovine carbonic anhydrase. Details: species or system Bos taurus.

What is called Kd is the constant that tells how readily two partners part at equilibrium. A higher Kd goes with lower affinity. As for `NS(=O)(=O)c1ccc(F)cc1`, the Kd in test [1] was found to be 1 µM. Further, in test [2], the result was Active.

In general, Ki refers to a dissociation constant, usually derived from enzyme kinetics or from competition with a known ligand. Molecule `Cc1cc(-c2cccc3ccccc23)nc(N)n1` yielded a Ki in test [3] of 5 µM. Besides, the outcome in test [4] was Active.

In the case of `COc1ccc(Cl)cc1-c1cc(C)nc(N)n1`, the inhibitory constant (Ki) in test [3] is 11 µM. Further, the Activity entry in test [5] is “Dose-dependent effect”. The outcome in test [6] was Active.

Consider `CCN1CCCC1CNC(=O)c1cc(S(N)(=O)=O)ccc1OC` (centres undefined) [SULPIRIDE], for which, in test [7], the Ki came out at 48 µM.

`Cc1cc(-c2ccccc2)nc(N)n1` came in with a Ki in test [3] of 14 µM.
